Source: patent US6809065B2, “Herbicide containing substituted pyrazole derivative as active ingredient” (SDS Biotech K.K., priority 2001, dated 2004)

Assays:
[1] = tested on: Chenopodium album; experiment: Upland field foliage treatment (Test Example 1); assay type: in vivo; settings: foliage treatment 14th day after sowing, wettable powder, 1 kg active ingredient per hectare, evaluated 21st day after application
How it was run: (§1)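 Foliage application took place two weeks after sowing, at an active-ingredient rate of 1 kg/ha from a water-diluted wettable powder. Rating followed on the 21st day after application, using an index scale on which crop values rise as injury increases.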

[2] = tested on: Digitaria adscendens; experiment: Upland field foliage treatment (Test Example 1); assay type: in vivo; settings: foliage treatment 14th day after sowing, wettable powder, 1 kg active ingredient per hectare, evaluated 21st day after application
How it was run: as §1

[3] = tested on: Setaria viridis; experiment: Upland field foliage treatment (Test Example 1); assay type: in vivo; settings: foliage treatment 14th day after sowing, wettable powder, 1 kg active ingredient per hectare, evaluated 21st day after application
How it was run: as §1

[4] = tested on: Stellaria media; experiment: Upland field foliage treatment (Test Example 1); assay type: in vivo; settings: foliage treatment 14th day after sowing, wettable powder, 1 kg active ingredient per hectare, evaluated 21st day after application
How it was run: as §1

[5] = tested on: soybean (Glycine max); experiment: Upland field foliage treatment (Test Example 1), crop; assay type: in vivo; settings: foliage treatment 14th day after sowing, 1 kg active ingredient per hectare, evaluated 21st day, lower index = higher safety
How it was run: as §1

[6] = tested on: wheat (Triticum aestivum); experiment: as above; assay type: in vivo; settings: foliage treatment 14th day after sowing, 1 kg active ingredient per hectare, evaluated 21st day, lower index = higher safety
How it was run: as §1

[7] = tested on: Chenopodium album; experiment: Upland soil treatment (Test Example 2); assay type: in vivo; settings: soil surface treatment next day after sowing, wettable powder, 1 kg active ingredient per hectare, evaluated 21st day after application
How it was run: (§2)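 Upland soil in pots was sown with weed and crop seeds, covered with about 1 cm soil, and next day sprayed on the surface with wettable-powder formulation at 1 kg active ingredient per hectare. Effects were scored by index on day 21; higher index means stronger weed control, lower index means better crop safety.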

[8] = tested on: Digitaria adscendens; experiment: Upland soil treatment (Test Example 2); assay type: in vivo; settings: soil surface treatment next day after sowing, wettable powder, 1 kg active ingredient per hectare, evaluated 21st day after application
How it was run: as §2

[9] = tested on: Setaria viridis; experiment: Upland soil treatment (Test Example 2); assay type: in vivo; settings: soil surface treatment next day after sowing, wettable powder, 1 kg active ingredient per hectare, evaluated 21st day after application
How it was run: as §2

[10] = tested on: Stellaria media; experiment: Upland soil treatment (Test Example 2); assay type: in vivo; settings: soil surface treatment next day after sowing, wettable powder, 1 kg active ingredient per hectare, evaluated 21st day after application
How it was run: as §2

[11] = tested on: soybean (Glycine max); experiment: Upland soil treatment (Test Example 2), crop; assay type: in vivo; settings: soil surface treatment next day after sowing, 1 kg active ingredient per hectare, evaluated 21st day, lower index = higher safety
How it was run: as §2

[12] = tested on: wheat (Triticum aestivum); experiment: Upland soil treatment (Test Example 2), crop; assay type: in vivo; settings: soil surface treatment next day after sowing, 1 kg active ingredient per hectare, evaluated 21st day, lower index = higher safety
How it was run: as §2

[13] = tested on: Echinochloa spp.; experiment: Paddy field treatment (Test Example 3); assay type: in vivo, Echinochloa crusgalli; settings: paddy pot, submerged 4 cm, dropped on water surface 10th day after transplantation, 1 kg active ingredient per hectare, evaluated 21st day
How it was run: (§3)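 Index scores for herbicidal effect were read 21 days after treatment, higher meaning stronger effect. Treatment was a water-diluted wettable powder dropped onto flooded paddy soil at 1 kg active ingredient per hectare, 10 days after rice transplantation.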

[14] = tested on: Ammannia multiflora; experiment: Paddy field treatment (Test Example 3); assay type: in vivo; settings: paddy pot, submerged 4 cm, dropped on water surface 10th day after transplantation, 1 kg active ingredient per hectare, evaluated 21st day
How it was run: as §3

[15] = tested on: Monochoria vaginalis; experiment: Paddy field treatment (Test Example 3); assay type: in vivo; settings: paddy pot, submerged 4 cm, dropped on water surface 10th day after transplantation, 1 kg active ingredient per hectare, evaluated 21st day
How it was run: as §3

[16] = tested on: Scirpus juncoides; experiment: Paddy field treatment (Test Example 3); assay type: in vivo; settings: paddy pot, submerged 4 cm, dropped on water surface 10th day after transplantation, 1 kg active ingredient per hectare, evaluated 21st day
How it was run: as §3

[17] = tested on: rice (Oryza sative, variety: Koshihikari); experiment: Paddy field treatment (Test Example 3), crop; assay type: in vivo, Oryza sativa; settings: transplanted rice two-leaf period, water surface treatment 10th day after transplantation, 1 kg active ingredient per hectare, evaluated 21st day, lower index = higher safety
How it was run: as §3

Row | SMILES | Herbicidal activity Chenopodium album [1] | Herbicidal activity Digitaria adscendens [2] | Herbicidal activity Setaria viridis [3] | Herbicidal activity Stellaria media [4] | Herbicidal activity Glycine max [5] | Herbicidal activity Triticum aestivum [6] | Herbicidal activity Chenopodium album [7] | Herbicidal activity Digitaria adscendens [8] | Herbicidal activity Setaria viridis [9] | Herbicidal activity Stellaria media [10] | Herbicidal activity Glycine max [11] | Herbicidal activity Triticum aestivum [12] | Herbicidal activity Echinochloa spp. [13] | Herbicidal activity Ammannia multiflora [14] | Herbicidal activity Monochoria vaginalis [15] | Herbicidal activity Scirpus juncoides [16] | Herbicidal activity Oryza sativa [17]
1 | CCc1cc(-c2ccccc2)nn1CC(=COC)C(=O)OC [Compound 36] | 5 (herbicidal effect of not less than 90% by weight) | 4 (herbicidal effect of not less than 70% by weight and less than 90% by weight) | 5 (herbicidal effect of not less than 90% by weight) | 5 (herbicidal effect of not less than 90% by weight) | 1 (herbicidal effect of not less than 10% by weight and less than 30% by weight) | 1 (herbicidal effect of not less than 10% by weight and less than 30% by weight) | 4 (herbicidal effect of not less than 70% by weight and less than 90% by weight) | 4 (herbicidal effect of not less than 70% by weight and less than 90% by weight) | 4 (herbicidal effect of not less than 70% by weight and less than 90% by weight) | 4 (herbicidal effect of not less than 70% by weight and less than 90% by weight) | 0 (herbicidal effect of not less than 0% by weight and less than 10% by weight) | 0 (herbicidal effect of not less than 0% by weight and less than 10% by weight) | 3 (herbicidal effect of not less than 50% by weight and less than 70% by weight) | 3 (herbicidal effect of not less than 50% by weight and less than 70% by weight) | 3 (herbicidal effect of not less than 50% by weight and less than 70% by weight) | 3 (herbicidal effect of not less than 50% by weight and less than 70% by weight) | 0 (herbicidal effect of not less than 0% by weight and less than 10% by weight)
2 | COC=C(Cn1nc(-c2ccccc2Cl)c(Br)c1C)C(=O)OC [Compound 27] | 5 (herbicidal effect of not less than 90% by weight) | 5 (herbicidal effect of not less than 90% by weight) | 4 (herbicidal effect of not less than 70% by weight and less than 90% by weight) | 5 (herbicidal effect of not less than 90% by weight) | 0 (herbicidal effect of not less than 0% by weight and less than 10% by weight) | 0 (herbicidal effect of not less than 0% by weight and less than 10% by weight) | 4 (herbicidal effect of not less than 70% by weight and less than 90% by weight) | 5 (herbicidal effect of not less than 90% by weight) | 4 (herbicidal effect of not less than 70% by weight and less than 90% by weight) | 5 (herbicidal effect of not less than 90% by weight) | 0 (herbicidal effect of not less than 0% by weight and less than 10% by weight) | 0 (herbicidal effect of not less than 0% by weight and less than 10% by weight) | 5 (herbicidal effect of not less than 90% by weight) | 5 (herbicidal effect of not less than 90% by weight) | 5 (herbicidal effect of not less than 90% by weight) | 5 (herbicidal effect of not less than 90% by weight) | 1 (herbicidal effect of not less than 10% by weight and less than 30% by weight)
